Results: patent publication US4068003A, “Method of medical treatment of myasthenia” (priority 1976, dated 1978)

Columns and labels:
[1] = Teratogenesis test, rats; format: in vivo; conditions: rats, 6, 60, 600 mg/Kg/day
[2] = Teratogenesis test, mice; format: in vivo; conditions: mice, 6, 60, 600 mg/Kg/day
[3] = Subacute oral toxicity test in rabbits (23 days); format: in vivo
Procedure: Coenzyme Q10 was compulsorily and orally administered every day for 23 days to each group consisting of 6 male rabbits and 5 female rabbits. The dose was 6, 60 and 600 mg/Kg/day, respectively. Coenzyme Q10 was used in the form of gum Arabic suspension, whereas the solution containing gum Arabic alone was used as the control group. On the 24th day, blood samples were collected from all the animals, and 3 males and 2 females from each group were then selectively autopsied.

[4] = Subacute oral toxicity test in rats (5 weeks); format: in vivo, rats of Wistar strain
Procedure: (§1) Coenzyme Q10 was compulsorily and orally administered every day for 5 weeks to each group consisting of 10 male rats and 10 female rats of Wistar strain. The dose was 40, 200, and 1000 mg/Kg/day, respectively. Coenzyme Q10 was used in the form of gum Arabic suspension, while the solution containing gum Arabic alone was used as the control group. Collection of blood and urine samples and autopsies were carried out 5 weeks after the initiation of administration.

[5] = Overall result of acute, subacute, chronic toxicity and teratogenesis tests; format: in vivo
Source text: (§2) In order to evaluate the acute toxicity of a single high dose administration of Coenzyme Q10, male and female rats of Wistar strain and male and female mice of ICR-JCL strain were used, and oral, intramuscular, subcutaneous, and intravenous administrations were studied. For the oral administration of Coenzyme Q10, gum Arabic suspension was used. For the intramuscular, subcutaneous and intravenous administrations, Coenzyme Q10 was used as a solution containing a nonionic surfactant, Nikkol HCO-60. Nikkol HCO-60 is a trade mark of a non-ionic surfactant comprised of hydrogenated castor oil/polyoxyethylene-60 mole ether available from Nikko Chemicals, Co. Ltd., Japan.
as §1
Coenzyme Q10 was compulsorily and orally administered every day for 23 days to each group consisting of 6 male rabbits and 5 female rabbits. The dose was 6, 60 and 600 mg/Kg/day, respectively. […]

[6] = Clinical test in myasthenia gravis, case [III] (person); format: in vivo, human
Source text: (§3) The effects of the present invention for the treatment of myasthenia gravis will be shown with reference to the results of clinical tests.
The patient was attacked by myasthenia. At the first medical examination, only eyelid drooping (eye fissure: left 5 mm, right 2 mm) was observed.

[7] = Chronic oral toxicity test (26 weeks); format: in vivo, rats of Wistar strain
Procedure: Coenzyme Q10 was compulsorily and orally administered to each group consisting of 10 male rats and 10 female rats of Wistar strain for consecutive 26 weeks in a ratio of 6 days a week. The dose was 6, 60 and 600 mg/Kg/day, respectively. Coenzyme Q10 was used in the form of gum Arabic suspension, whereas the solution containing gum Arabic alone is used as the control group. Collection of blood and urine samples and autopsies were carried out 26 weeks after the administration.

[8] = Acute toxicity test, single high dose, mice; format: in vivo, mice of ICR-JCL strain; conditions: for Maximum dose (no case of deaths): single dose, 7 days observation
Source text: as §2
(§4) Observation was carried out for 7 days by using six males and six females for each dose group.

[9] = Clinical test in myasthenia gravis, case [II] (person); format: in vivo, human
Procedure: as §3
Thereafter, they took 20-25 mg/day of Ambenonium perorally intermittently.
At the first medical examination, eye symptoms such as eyelid drooping and double vision and evervation in limbs were remarkable. As for the walking ability, they barely walked 100 m even when the effect of Ambenonium was exerted.
By peroral administration of 25 mg/day of Ambenonium and 30 mg/day of Coenzyme Q10, muscular contraction was caused 2-3 days after the start of the treatment. Dosage of Ambenonium was reduced to 20 mg/day. After the treatment was continued according to this recipe for one week, the heavy feeling of the body, double vision and the eye symptoms were relieved. Continuous 400 m walking was made possible.

[10] = Acute toxicity test, single high dose, rats; format: in vivo, rats of Wistar strain; conditions: for Maximum dose (no case of deaths): single dose, 7 days observation
Source text: as §2, §4

[11] = Clinical test in myasthenia gravis, case [I] (person); format: in vivo, human
Procedure: as §3
They were attacked with myasthenia. […] Ambenonium is a cholinesterase inhibitor and available, for example, under the trademark Myterase. One year before the first medical examination in this hospital, they took 20 mg/day of Ambenonium.
At the first medical examination, drooping of the left eyelid, disorder in the movement of the left eyeball and fatiguing of the limbs were observed. […] The administration according to the recipe was continued for 30 days and, thereafter, dosage of Ambenonium was reduced to 10 mg/day (morning and evening: 5 mg each). This treatment was continued for a further period of 30 days.

[12] = rabbits, 6, 60, 600 mg/Kg/day oral, 23 days
[13] = rats, 40, 200, 1000 mg/Kg/day oral, 5 weeks
[14] = Coenzyme Q10 30 mg/day peroral in combination with Distigmine Bromide
[15] = group not stated, spontaneous pneumonia and aspiration pneumonia due to erroneous administration
[16] = rats, 6, 60, 600 mg/Kg/day oral, 26 weeks, vs control group
[17] = all routes, maximum doses of Table 1
[18] = any administration group, 7 days
[19] = at the maximum dose in each administration route
[20] = intramuscular, Nikkol HCO-60 solution
[21] = intravenous, Nikkol HCO-60 solution
[22] = subcutaneous, Nikkol HCO-60 solution
[23] = Coenzyme Q10 30 mg/day, Ambenonium reduced to 20 mg/day, one week

Compound: COC1=C(OC)C(=O)C(C/C=C(\C)CC/C=C(\C)CC/C=C(\C)CC/C=C(\C)CC/C=C(\C)CC/C=C(\C)CC/C=C(\C)CC/C=C(\C)CC/C=C(\C)CCC=C(C)C)=C(C)C1=O [Coenzyme Q10]
- adverse effects in mothers, fetuses, and newborns [1]: no adverse effects
- adverse effects in mothers, fetuses, and newborns [2]: no adverse effects
- electron-microscopic observation of liver (minute structure) ([3]; 7th, 14th and 24th days): not recognized abnormal findings
- macroscopical and histological observation ([3]; hematoxylin.Eosine staining and liver fat staining, 23 days): abnormalities were not recognized
- hematological test and biochemical test of blood [3, 12]: Abnormal findings were not obtained
- weight of each organ [3, 12]: no effect
- general condition and increase of body weight ([3]; rabbits, 6, 60, 600 mg/Kg/day oral, 23 days, vs control group): no difference
- toxicity (subacute oral) ([3]; rabbits, 23 days): not recognized
- dead animals during the experiment ([4]; group not stated, spontaneous pneumonia and aspiration pneumonia due to error of administration): 4 animals
- toxicity (subacute oral) ([4]; rats, 5 weeks): not recognized
- hematological test and biochemical test of blood and urine [4, 13]: No significant change
- weight of each organ [4, 13]: no significant change
- general condition and body weight ([4]; rats, 40, 200, 1000 mg/Kg/day oral, 5 weeks, vs control group): no difference
- overall safety [5]: very safe drug, without side-effects
- ascending and descending stairs [6, 14]: could ascend and descend stairs easily
- need for the dropping lotion [6, 14]: became unnecessary
- opening of the eyelids [6, 14]: improve and to stabilize the opening of the eyelids
- walking straight looking ahead ([6]; Coenzyme Q10 30 mg/day peroral in combination with Distigmine Bromide, difficult before): could walk easily
- deaths, females [7, 15]: 3 females
- deaths, males [7, 15]: 11 males
- macroscopical and histological observation ([7]; hemoxylin.Eosine staining and liver fat staining, 26 weeks, vs control group): abnormalities were not recognized
- body weight [7, 16]: increased the same as that of the control group
- general condition [7, 16]: no difference
- toxicity (chronic oral) ([7]; rats, 26 weeks): no toxicity was observed
- weights of organs ([7]; rats, 26 weeks): no significant increase and decrease
- biochemical tests of blood and urine ([7]; rats, 26 weeks, vs control group): No significant changes
- leukocytal percentages (hematological findings) ([7]; rats, 26 weeks, some increase and decrease, not dose-related): within the range of physiological fluctuations
- toxicity (acute) [8]: extremely low
- LD50 [8, 17]: far higher than the maximum dose mentioned above
- general condition, body weight, food intake and autopsy findings [8, 18]: no change
- deaths [8, 19]: no case of deaths
- Maximum dose (no case of deaths) [8, 20]: 500 mg/kg
- Maximum dose (no case of deaths) [8, 21]: 250 mg/kg
- Maximum dose (no case of deaths) ([8]; oral, gum Arabic suspension): 4000 mg/kg
- Maximum dose (no case of deaths) [8, 22]: 500 mg/kg
- time to muscular contraction after start of treatment ([9]; Coenzyme Q10 30 mg/day with Ambenonium 25 mg/day, peroral): 2 to 3 days
- continuous walking made possible [9, 23]: 400 m
- heavy feeling of the body, double vision and eye symptoms [9, 23]: relieved
- toxicity (acute) [10]: extremely low
- LD50 [10, 17]: far higher than the maximum dose mentioned above
- general condition, body weight, food intake and autopsy findings [10, 18]: no change
- deaths [10, 19]: no case of deaths
- Maximum dose (no case of deaths) [10, 20]: 500 mg/kg
- Maximum dose (no case of deaths) [10, 21]: 250 mg/kg
- Maximum dose (no case of deaths) ([10]; oral, gum Arabic suspension): 4000 mg/kg
- Maximum dose (no case of deaths) [10, 22]: 500 mg/kg
- walking and work ability ([11]; 30 days combination, then Ambenonium reduced to 10 mg/day for further 30 days): long distance walking and light work became possible
- symptoms after further reduction of Ambenonium ([11]; Ambenonium reduced to 5 mg/day): no worsening of the symptoms was caused and the patient is now getting better
- improvement in symptoms (walking, breathing) ([11]; Coenzyme Q10 30 mg/day peroral in combination with Ambenonium, at the start): an improvement in walking and relief in a feeling of difficulty in breathing

Compound: CN(CCCCCCN(C)C(=O)Oc1ccc[n+](C)c1)C(=O)Oc1ccc[n+](C)c1 [Distigmine Bromide]
- eye fissure, left ([6]; Distigmine Bromide 10 mg/day peroral plus 0.5 % eye drops, 6 months, before: left 5 mm): 6 mm
- eye fissure, right ([6]; Distigmine Bromide 10 mg/day peroral plus 0.5 % eye drops, 6 months, before: right 2 mm): 4 mm
- symptoms (eyelid drooping) ([6]; Distigmine Bromide peroral plus eye drops, 6 months): improved a little

Compound: CC[N+](CC)(CCNC(=O)C(=O)NCC[N+](CC)(CC)Cc1ccccc1Cl)Cc1ccccc1Cl [Ambenonium]
- walking ability ([9]; at first medical examination, under effect of Ambenonium, before Coenzyme Q10, barely walked): ~100 m
- improvement in the symptoms ([11]; Ambenonium alone, 20 mg/day peroral, 4 months): no significant improvement in the symptoms
